Laboratory results as given in patent publication US9480695B2, “Methods for inducing orexin neurons and agent for treating narcolepsy or eating disorder” (THE UNIVERSITY OF TOKYO, priority 2011, dated 2016).

Tested on: orexin gene-expressing cells (orexin neuron) in the lateral hypothalamic area
Experiment: Increase in orexin neuron in vivo, in situ hybridization of lateral hypothalamic area of old mouse
Conditions: old mouse C57BL/6 male, 5 mg/ml in drinking water, 8 weeks from 53- to 61-week-old, versus non-administration old mouse; FIG. 12
Experimental: ManNAc was dissolved in drinking water, and the drinking water with a concentration of 5 mg/ml was administered to old mouse (C57BL/6, male) by allowing free access to water for 8 weeks in total from 53-week-old to 61-week-old. After completion of the administration, the aforementioned mouse was immediately perfusion fixed and subjected to in situ hybridization method. As a control group, ManNAc non-administration old mouse (61-week-old at the time point of fixing) and young mouse (10-week-old at the time point of fixing) were used.
Each three mice of ManNAc administration and control groups were anesthetized with Nembutal, and perfusion fixed with formamide fixative (Genostaff). The brain was removed, embedded in paraffin, and 6 μm-thick sections were prepared in the sagittal section direction. […]
was cloned into a […] vector (Promega) and, using the plasmid as a template and DIG RNA Labeling Mix (Roche), a digoxygenin-labeled RNA probe was produced. […] The cells that expressed orexin gene were counted and the average of three animals and the standard error were determined.

**Q.** How did the “number of orexin gene-expressing cells (orexin neuron) in the lateral hypothalamic area” value turn out when CC(=O)N[C@@H]1C(O)O[C@H](CO)[C@@H](O)[C@@H]1O (stereo partly drawn) [ManNAc, N-acetyl-D-mannosamine] was run?
**A.** Its value is “orexin neuron increased”.
